Test results as given in a melting point compilation (Tetko et al.).

melting point	SMILES
172 to 175 °C	c1ccc(-c2cc(-c3ccccc3)cc(-c3ccccc3)c2)cc1
12.5 °C	OCCCCCCCCCCCl
148 °C	CC12CCCC1C1CCC3CC(O)CCC3(C)C1CC2 (configuration not stated)
213 to 214 °C	CSc1nc(-c2ccc(C)cc2)nc(N)c1C#N
10.5 °C	CC(C)CCCCCCCCCCCO
132 °C	CC(=O)Oc1ccccc1C(=O)OCC(=O)N(C)CC(N)=O
160 to 166 °C	CCOC(=O)C1=C(C)OC(N)=C(C#N)C1c1ccc2c(c1)CCO2 (configuration not stated)
98 to 100 °C	CC(C)(C)OC(=O)Nc1ccco1
218 to 219 °C	Cc1nn(C)c(C)c1C(=O)O
16.4 °C	CCCCCCC(=O)c1ccccc1
300 °C	O=C1CNC(=O)CN1
75 °C	CC(C)(C)OC(=O)NCCC(=O)O
153 to 155 °C	Cc1nc(C)c(Br)s1
56 to 59 °C	OCc1cccc(Cn2cncn2)c1
101 to 108 °C	O=C(c1ccc2ccccc2c1)C(Br)c1ccccc1 (configuration not stated)
158 to 161 °C	Nc1cc(-c2ccc(Cl)cc2)nc(N)n1
92 °C	O=S(=O)(Cl)Cc1ccccc1
56 to 57 °C	Cc1nc(C)c(CO)s1
37 °C	O=C1C=CC(=O)C1
272 °C	Cn1c(=O)c(C2=NNC(=O)C2=CNc2ccccc2)c(O)c2ccccc21
213 to 214 °C	O=[N+]([O-])c1ccc2[nH]c3c(c2c1)CCN(Cc1ccccc1)C3
17.9 °C	CCCCCCCCCCCC(CCCCCCCC)c1ccccc1 (configuration not stated)
160 to 161 °C	COc1ccc(-c2n[nH]cc2C=O)cc1
105 °C	CN(CCO)c1nc2c(c(=O)n(C)c(=O)n2C)n1C

melting point	SMILES
133 °C	CCOC(=O)C1=NC2Sc3sc(C(=O)OCC)cc3C(c3ccccc3)C2=C1N (configuration not stated)
117 °C	CCC(C)=NNc1ccc([N+](=O)[O-])cc1[N+](=O)[O-]
130 °C	C=C(NC(C)=O)C(=O)CCC(N)=O
163 to 168 °C	Cc1ccc(C(N)=S)cc1
166 °C	O=C1C=C(NCc2ccncc2)C(=O)c2ccccc21
182 °C	c1ccc(-c2sc(-c3ccccc3)c(-c3ccccc3)c2-c2ccccc2)cc1
197 °C	Nc1c(CN2CCCC2)c(=O)oc2ccccc12
174 to 178 °C	O=C1CC(=O)CC(c2ccc(F)cc2)C1
80 °C	N#Cc1ccncc1C#N
51.5 to 52 °C	C=C(F)C(=O)O
104 °C	O=C(OCC(=O)N1CCOCC1)c1ccccc1
165 °C	O=C(c1ccc2ccccc2c1)c1noc(-c2ccc(Cl)cc2)c1S(=O)(=O)c1ccccc1
153 °C	O=C(/C=C/c1ccc(Cl)c(Cl)c1)c1ccc2ccccc2c1
109 °C	CC(=O)OC[C@@H](OC(C)=O)[C@H](OC(C)=O)[C@H](OC(C)=O)[C@@H](OC(C)=O)c1nnn[nH]1
162 to 163 °C	ON=CC1=C(/C=C/c2ccccc2)CCC1
239 °C	CC1=NNC(=O)C1=NNc1ccccc1C(=O)O
88 to 89 °C	S=C=Nc1cccc2nsnc12
217 to 222 °C	O=C1C(c2ccccc2)=C(c2ccccc2)C(c2ccccc2)=C1c1ccccc1
191 °C	Cc1cc(N=C2c3ccccc3CN2c2cc(C)on2)no1
248 to 249 °C	O=C(O)C1CCN(c2ncnc3ccsc23)CC1
115 to 125 °C	ON=CC=Cc1ccccc1
210 °C	Clc1cc(Cl)c2c(oc3ccc(Cl)c(Cl)c32)c1Cl
211 °C	CC(=O)N[C@H]1C(O)O[C@H](CO)[C@@H](O)[C@@H]1O (some centres not stated)
138 to 143 °C	Cn1cc(NC(=O)OC(C)(C)C)cc1C(=O)O

melting point	SMILES
133 °C	Cc1cc(O)c([N+](=O)[O-])cc1Cl
49 to 52 °C	O=C(O)CSCCOc1ccccc1
143 °C	Cc1ccc(C(c2ccc(C)o2)c2cc([N+](=O)[O-])ccc2O)o1
198 to 200 °C	C/C=C/C=C(C)/C=N/Nc1ccc([N+](=O)[O-])cc1[N+](=O)[O-]
-46.4 °C	CCCCCCCOC(=O)CCCC
112 to 114 °C	BrCc1sc(-c2ccccc2)nc1-c1ccccc1
118 °C	O=S(=O)(Cl)c1ccc(N2CCOCC2)nc1
99.5 to 102 °C	C=CCc1c(N)c(C(C)=O)cc(C(C)=O)c1O
5 °C	Cc1cc(Cl)ccc1Cl
250 °C	C=C1C(=O)C23C4CC5C(C)(C)CCC(=O)C5(C(=O)O4)C2C(=O)CC1C3O (configuration not stated)
0 °C	CCc1c(C)c[nH]c1C
204 to 208 °C	COc1ccccc1P(c1ccccc1OC)c1ccccc1OC
56 °C	OC1Cc2cccc(F)c21 (configuration not stated)
14.7 °C	CC1=CCC(O)(C(C)C)CC1 (configuration not stated)
113 °C	Nc1ccc(OCCCCCN2C(=O)c3ccccc3C2=O)cc1
87 °C	O=[N+]([O-])c1c(Cl)ccc(O)c1Cl
230 to 231 °C	COc1cc(-c2n[nH]c(=S)n2/N=C/c2cc(Br)ccc2O)cc(OC)c1OC
-61 °C	FC(F)(Br)CBr
168 to 170 °C	O=C(O)c1ccc(OC2CCOCC2)nc1
49 °C	O=C(c1ccccc1)N1CCCCC1
216 °C	Cc1cc(C(=O)O)ccc1Br
80 °C	COc1ccc2c(c1C)CC2C#N (configuration not stated)
103 °C	O=C1C=CCN1[C@@H](CO)c1ccccc1
234 to 236 °C	CS(=O)(=O)c1csc(C(=O)O)c1Cl

melting point	SMILES
86 to 88 °C	COc1ccc(C=CC(=O)Cl)c(Cl)c1OC
212 °C	CC1CCC(C)(C(=O)N(C(=O)C2(C)CCC(C)C2(C)C)c2ccccc2)C1(C)C (configuration not stated)
247 °C	c1ccc(Oc2nc(-c3ccccc3)nc3nc4ccccc4n23)cc1
138 °C	CC(=O)c1c(C)c[nH]c1C
147 to 149 °C	Cc1csc2sc(C=O)c(C)c12
53 °C	Cc1ccnc(Cl)c1[N+](=O)[O-]
122 °C	CN(C(=O)N(C)c1ccccc1)c1ccccc1
256 °C	O=C(Nc1ncc([N+](=O)[O-])s1)c1cccs1
16 °C	O=C(O)CCCCl
70 °C	CCOC(CNC1=CC(=O)C=CC1=O)OCC
146 °C	c1cc2c3c(cccc3c1)-c1nccnc1-2
200 °C	N#Cc1cc2ccccc2oc1=N
83 to 84 °C	CC(C)(C)OC(=O)NCc1ccc(C=O)cc1
59 to 61 °C	CCOC(=O)c1cc2cc(OC)ccc2o1
103 to 106 °C	N#Cc1ccsc1N
175 °C	Cc1cc(/C=C/c2ccccc2N)c([N+](=O)[O-])cc1[N+](=O)[O-]
84 °C	Cc1cccc(NC(=O)c2cncc(Cl)n2)c1
108 °C	CC(=O)Oc1nc(C2CCCCC2)nn1-c1ccccc1
128 to 130 °C	O/N=C(\Cc1ccccc1)c1ccc2ccccc2c1
214 to 216 °C	COc1cc(C(=O)O)cc(Cl)n1
291 °C	O=C1c2ccccc2C(=O)c2cc3ccccc3cc21
108 °C	Cc1ccc([N+](=O)[O-])c(N)c1
55 to 56 °C	COC(=O)Cc1csc2ccc(Cl)cc12
250 °C	O=C1c2ccccc2-c2c(O)cccc21

melting point	SMILES
133 °C	Cc1n[nH]cc1[N+](=O)[O-]
169 to 170 °C	COc1cccc(-c2ccc(C(=O)O)o2)c1
69 to 70 °C	CS(=O)(=O)OS(C)(=O)=O
-11 °C	CC(C)(C)c1ccc(S)cc1
180 °C	NS(=O)(=O)c1c(Cl)cc(Cl)cc1Cl
147 °C	NC(=O)Nc1ccccc1
69 °C	CCCCCCCCCOC(=O)c1ccc(N)cc1
82 °C	CC1CCC(C)(C(=O)COC(=O)c2ccccc2)C1(C)C (configuration not stated)
114 to 117 °C	O=Cc1ccc(C=O)s1
53 to 55 °C	CC(=O)C12CC3CC(CC(C3)C1)C2
236 °C	NC(=O)NCCC[C@H](N)C(=O)O
150 to 151 °C	O=C(O)C1CC(=O)N(Cc2ccc(F)cc2)C1 (configuration not stated)
29 to 31 °C	N#Cc1ccoc1
46 °C	S=C=Nc1ccc(Br)cc1Cl
72 °C	Cc1cc(C)c(O)cc1C
78 to 82 °C	CCC(O)(CC)C(=O)O
145 °C	O=CN(C=O)C(N(C=O)C=O)N(C=O)C=O
39 °C	FC(F)(F)c1cccnc1Cl
140 °C	Clc1ccc2cc(Cl)ccc2c1
126 to 134 °C	CC1(C)C(O)C(C)(C)C1O (configuration not stated)
166 °C	CC(=O)OC1CC[C@@]2(C)C(CC[C@@H]3[C@@H]2CC[C@@]2(C)[C@H]3CC[C@@]2(C#Cc2ccccc2)OC(C)=O)C1 (some centres not stated)
126 °C	CC1CCC(O)CC1=CC=C1CCCC2(C)C1CCC2C(C)C=CC(C)C(C)C (configuration not stated)
85 °C	FC(F)(F)C(F)(F)C(F)(F)c1cc(-c2ccccc2)[nH]n1

SMILES	melting point
CCC1(CC)C(=O)NC(=O)N(C)C1=O	155 °C
ClCc1nc2ccccc2[nH]1	146 to 150 °C
COc1ccc(-n2c(SC)nc3ccccc3c2=O)cc1	154 to 156 °C
Nc1cccc([N+](=O)[O-])c1[N+](=O)[O-]	122 °C
COS(=O)(=O)Cl	-70 °C
CCCBr	-110 °C
O=S(=O)(Cl)c1ccc(CBr)cc1	74 °C
CCN(CC)CCN1C(=O)CN=C(c2ccccc2F)c2cc(Cl)ccc21	79.5 °C
CCC(=O)c1ccc(N)cc1	140 °C
FC(F)(F)OC(F)(I)C(F)(F)F (configuration not stated)	44 °C
Clc1cccc(Cl)c1CBr	56 °C
Clc1cccc2ccccc12	-2.5 °C
COC(=O)C1=C(C(=O)OC)[C@@H]2C=C[C@H]1c1cc3ccccc3c(-c3ccccc3)c12	219 °C
